From article doi:10.1101/2021.09.30.462449v1 (biorxiv, 2021)

Legend:
Assay in all cases: biochemical
Conditions in all cases: read-out: % inhibition mean (Z'Lyte)
GSK3A (GSK3 alpha) = GSK3A (GSK3 alpha) (Homo sapiens, UniProt P49840)
PTK2 (FAK) = PTK2 (FAK) (Homo sapiens, UniProt Q05397)
BLK = BLK (Homo sapiens, UniProt P51451)
SRC N1 = SRC N1 (Homo sapiens, UniProt P12931)
MET (cMet) Y1235D = MET (cMet) Y1235D (Homo sapiens, UniProt P08581, Y1235D)
KIT V559D = KIT V559D (Homo sapiens, UniProt P10721, V559D)
CSNK2A1 (CK2 alpha 1) = CSNK2A1 (CK2 alpha 1) (Homo sapiens, UniProt P68400)
AKT1 (PKB alpha) = AKT1 (PKB alpha) (Homo sapiens, UniProt P31749)
PRKCA (PKC alpha) = PRKCA (PKC alpha) (Homo sapiens, UniProt P17252)
TEK (Tie2) = TEK (Tie2) (Homo sapiens, UniProt Q02763)
IGF1R = IGF1R (Homo sapiens, UniProt P08069)
DAPK3 (ZIPK) = DAPK3 (ZIPK) (Homo sapiens, UniProt O43293)
DYRK1A = DYRK1A (Homo sapiens, UniProt Q13627)
ABL1 F317I = ABL1 F317I (Homo sapiens, UniProt P00519, F317I)
PIM1 = PIM1 (Homo sapiens, UniProt P11309)
MAPK1 (ERK2) = MAPK1 (ERK2) (Homo sapiens, UniProt P28482)
MST1R (RON) = MST1R (RON) (Homo sapiens, UniProt Q04912)
PEAK1 = PEAK1 (Homo sapiens, UniProt Q9H792)
CSNK2A2 (CK2 alpha 2) = CSNK2A2 (CK2 alpha 2) (Homo sapiens, UniProt P19784)
JAK1 = JAK1 (Homo sapiens, UniProt P23458)
NEK1 = NEK1 (Homo sapiens, UniProt Q96PY6)
PIM3 = PIM3 (Homo sapiens, UniProt Q86V86)
CLK3 = CLK3 (Homo sapiens, UniProt P49761)
TEK (TIE2) Y897S = TEK (TIE2) Y897S (Homo sapiens, UniProt Q02763, Y897S)
CAMK1G (CAMKI gamma) = CAMK1G (CAMKI gamma) (Homo sapiens, UniProt Q96NX5)
PRKCB2 (PKC beta II) = PRKCB2 (PKC beta II) (Homo sapiens, UniProt P05771)
DYRK4 = DYRK4 (Homo sapiens, UniProt Q9NR20)
MAPK3 (ERK1) = MAPK3 (ERK1) (Homo sapiens, UniProt P27361)

Sequence of GSK3A (GSK3 alpha) (P49840 whole entry): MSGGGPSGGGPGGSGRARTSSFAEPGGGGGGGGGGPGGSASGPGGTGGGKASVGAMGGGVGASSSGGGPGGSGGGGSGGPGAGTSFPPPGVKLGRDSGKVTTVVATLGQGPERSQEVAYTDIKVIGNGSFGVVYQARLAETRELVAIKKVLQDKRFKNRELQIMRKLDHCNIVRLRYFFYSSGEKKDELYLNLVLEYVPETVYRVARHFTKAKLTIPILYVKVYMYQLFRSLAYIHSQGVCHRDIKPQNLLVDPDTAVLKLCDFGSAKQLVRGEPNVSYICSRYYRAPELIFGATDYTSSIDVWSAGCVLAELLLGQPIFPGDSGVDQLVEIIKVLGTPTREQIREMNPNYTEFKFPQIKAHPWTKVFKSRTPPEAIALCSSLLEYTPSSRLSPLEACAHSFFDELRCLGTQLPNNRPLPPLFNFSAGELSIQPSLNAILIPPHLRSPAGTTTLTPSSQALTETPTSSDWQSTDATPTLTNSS
Sequence of IGF1R (P08069 whole entry): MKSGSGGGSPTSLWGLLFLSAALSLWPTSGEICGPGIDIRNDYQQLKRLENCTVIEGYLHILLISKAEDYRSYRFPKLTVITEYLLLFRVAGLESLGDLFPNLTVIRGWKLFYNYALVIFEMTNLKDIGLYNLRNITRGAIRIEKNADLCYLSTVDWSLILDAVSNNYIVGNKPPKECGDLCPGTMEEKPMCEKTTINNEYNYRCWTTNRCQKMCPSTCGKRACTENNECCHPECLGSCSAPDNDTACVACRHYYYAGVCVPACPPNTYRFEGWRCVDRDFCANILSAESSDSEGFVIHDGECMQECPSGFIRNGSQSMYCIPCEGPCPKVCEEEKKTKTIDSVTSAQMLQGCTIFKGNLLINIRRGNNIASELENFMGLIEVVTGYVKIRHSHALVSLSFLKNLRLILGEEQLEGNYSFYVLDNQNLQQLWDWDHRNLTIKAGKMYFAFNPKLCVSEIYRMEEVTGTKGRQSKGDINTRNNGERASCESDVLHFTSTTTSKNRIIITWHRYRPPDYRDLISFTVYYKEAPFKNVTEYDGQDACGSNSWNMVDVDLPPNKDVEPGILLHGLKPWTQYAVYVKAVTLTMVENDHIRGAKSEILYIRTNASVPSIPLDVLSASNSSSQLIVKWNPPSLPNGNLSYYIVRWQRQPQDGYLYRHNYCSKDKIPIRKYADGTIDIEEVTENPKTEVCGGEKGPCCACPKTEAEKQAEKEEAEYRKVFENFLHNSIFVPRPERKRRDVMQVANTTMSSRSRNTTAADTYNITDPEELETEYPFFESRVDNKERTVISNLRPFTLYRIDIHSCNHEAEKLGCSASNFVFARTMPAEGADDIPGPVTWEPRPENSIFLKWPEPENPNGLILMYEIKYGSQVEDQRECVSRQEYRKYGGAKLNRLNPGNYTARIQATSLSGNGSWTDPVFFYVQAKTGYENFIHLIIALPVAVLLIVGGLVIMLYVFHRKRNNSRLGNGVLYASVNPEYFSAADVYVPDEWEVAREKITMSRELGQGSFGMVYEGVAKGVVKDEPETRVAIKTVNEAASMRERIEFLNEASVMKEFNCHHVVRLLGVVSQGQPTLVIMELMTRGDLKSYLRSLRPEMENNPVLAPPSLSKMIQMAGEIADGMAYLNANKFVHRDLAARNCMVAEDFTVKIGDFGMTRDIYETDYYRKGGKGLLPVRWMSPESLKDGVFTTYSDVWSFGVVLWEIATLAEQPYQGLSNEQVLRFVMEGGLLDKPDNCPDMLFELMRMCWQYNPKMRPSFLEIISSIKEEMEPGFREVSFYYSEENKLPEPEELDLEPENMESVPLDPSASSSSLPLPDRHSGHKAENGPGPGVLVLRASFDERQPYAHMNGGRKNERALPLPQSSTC
Sequence of CSNK2A2 (CK2 alpha 2) (P19784 whole entry): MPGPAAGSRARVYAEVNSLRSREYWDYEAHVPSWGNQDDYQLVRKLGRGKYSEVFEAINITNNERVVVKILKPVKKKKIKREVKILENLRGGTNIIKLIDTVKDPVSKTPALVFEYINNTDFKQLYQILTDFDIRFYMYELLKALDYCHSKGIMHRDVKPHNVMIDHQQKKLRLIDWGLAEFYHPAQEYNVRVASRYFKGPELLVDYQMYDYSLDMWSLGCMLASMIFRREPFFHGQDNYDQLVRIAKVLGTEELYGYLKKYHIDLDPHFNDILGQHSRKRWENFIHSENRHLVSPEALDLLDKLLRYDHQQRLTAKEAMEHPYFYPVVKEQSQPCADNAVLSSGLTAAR
Sequence of PTK2 (FAK) (Q05397 whole entry): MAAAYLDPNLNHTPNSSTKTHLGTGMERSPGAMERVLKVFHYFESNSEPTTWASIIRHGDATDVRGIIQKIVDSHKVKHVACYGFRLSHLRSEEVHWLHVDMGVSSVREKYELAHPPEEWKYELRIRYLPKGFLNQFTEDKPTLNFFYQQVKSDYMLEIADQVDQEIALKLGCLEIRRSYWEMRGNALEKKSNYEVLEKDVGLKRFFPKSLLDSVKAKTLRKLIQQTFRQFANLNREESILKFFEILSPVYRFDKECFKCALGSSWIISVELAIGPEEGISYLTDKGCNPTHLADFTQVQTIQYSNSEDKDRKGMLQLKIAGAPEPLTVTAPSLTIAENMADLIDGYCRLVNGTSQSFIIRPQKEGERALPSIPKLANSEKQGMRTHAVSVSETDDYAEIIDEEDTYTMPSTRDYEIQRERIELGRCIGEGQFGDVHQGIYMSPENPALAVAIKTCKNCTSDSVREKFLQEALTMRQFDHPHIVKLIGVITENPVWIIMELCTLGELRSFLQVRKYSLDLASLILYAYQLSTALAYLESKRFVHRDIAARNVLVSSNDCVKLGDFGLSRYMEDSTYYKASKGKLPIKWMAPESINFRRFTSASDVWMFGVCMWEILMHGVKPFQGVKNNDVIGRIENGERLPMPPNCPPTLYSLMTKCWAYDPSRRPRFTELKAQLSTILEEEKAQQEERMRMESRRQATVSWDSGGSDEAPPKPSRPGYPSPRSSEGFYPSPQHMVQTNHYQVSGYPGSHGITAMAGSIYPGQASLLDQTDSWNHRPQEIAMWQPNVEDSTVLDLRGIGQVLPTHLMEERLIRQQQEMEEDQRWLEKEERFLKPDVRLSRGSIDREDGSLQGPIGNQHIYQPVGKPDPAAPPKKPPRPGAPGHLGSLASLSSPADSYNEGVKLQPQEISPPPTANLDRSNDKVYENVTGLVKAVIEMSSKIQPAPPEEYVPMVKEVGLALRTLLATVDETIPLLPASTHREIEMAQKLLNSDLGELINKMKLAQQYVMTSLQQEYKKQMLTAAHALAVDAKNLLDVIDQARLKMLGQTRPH
Sequence of CSNK2A1 (CK2 alpha 1) (P68400 whole entry): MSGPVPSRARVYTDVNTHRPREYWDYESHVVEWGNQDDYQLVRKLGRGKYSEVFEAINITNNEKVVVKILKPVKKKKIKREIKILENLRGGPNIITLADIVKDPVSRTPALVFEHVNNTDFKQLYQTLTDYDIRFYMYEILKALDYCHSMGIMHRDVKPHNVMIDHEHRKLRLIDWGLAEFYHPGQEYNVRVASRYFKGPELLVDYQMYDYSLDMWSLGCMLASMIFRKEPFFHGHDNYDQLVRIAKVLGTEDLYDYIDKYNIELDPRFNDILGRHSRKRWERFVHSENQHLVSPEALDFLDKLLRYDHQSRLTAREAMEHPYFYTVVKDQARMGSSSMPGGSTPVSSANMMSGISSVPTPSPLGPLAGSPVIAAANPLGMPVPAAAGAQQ
Sequence of PRKCB2 (PKC beta II) (P05771 whole entry): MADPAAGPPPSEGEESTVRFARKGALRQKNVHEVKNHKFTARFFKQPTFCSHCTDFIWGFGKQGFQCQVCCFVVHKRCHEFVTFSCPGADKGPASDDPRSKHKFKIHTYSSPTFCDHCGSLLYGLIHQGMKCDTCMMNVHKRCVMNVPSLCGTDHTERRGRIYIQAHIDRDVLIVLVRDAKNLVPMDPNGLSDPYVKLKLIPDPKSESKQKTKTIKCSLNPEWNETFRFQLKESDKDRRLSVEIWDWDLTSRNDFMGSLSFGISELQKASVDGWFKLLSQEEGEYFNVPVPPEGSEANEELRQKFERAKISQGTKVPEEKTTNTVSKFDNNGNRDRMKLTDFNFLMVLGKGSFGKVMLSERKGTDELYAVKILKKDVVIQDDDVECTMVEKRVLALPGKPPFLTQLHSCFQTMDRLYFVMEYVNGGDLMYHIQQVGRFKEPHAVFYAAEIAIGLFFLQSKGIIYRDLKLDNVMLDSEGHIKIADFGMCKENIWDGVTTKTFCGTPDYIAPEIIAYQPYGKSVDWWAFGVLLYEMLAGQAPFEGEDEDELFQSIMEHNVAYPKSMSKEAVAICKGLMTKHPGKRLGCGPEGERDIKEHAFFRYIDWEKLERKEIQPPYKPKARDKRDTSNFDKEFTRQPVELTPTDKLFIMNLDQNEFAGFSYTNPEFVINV
Sequence of CLK3 (P49761 whole entry): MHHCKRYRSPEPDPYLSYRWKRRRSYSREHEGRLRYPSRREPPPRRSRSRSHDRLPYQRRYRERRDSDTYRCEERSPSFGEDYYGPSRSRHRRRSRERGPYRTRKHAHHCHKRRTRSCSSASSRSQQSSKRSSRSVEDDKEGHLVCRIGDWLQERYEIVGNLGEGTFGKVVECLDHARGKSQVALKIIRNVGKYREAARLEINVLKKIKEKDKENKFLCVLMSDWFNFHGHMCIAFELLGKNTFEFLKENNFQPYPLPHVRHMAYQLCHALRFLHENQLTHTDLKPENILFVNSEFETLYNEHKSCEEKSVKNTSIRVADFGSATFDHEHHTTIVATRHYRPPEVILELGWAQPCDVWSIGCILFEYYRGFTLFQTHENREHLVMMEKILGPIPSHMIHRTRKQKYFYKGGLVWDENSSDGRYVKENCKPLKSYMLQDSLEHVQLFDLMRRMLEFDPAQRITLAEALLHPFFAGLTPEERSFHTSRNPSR

COc1ccc2nc3cc(Cl)ccc3c(Nc3cc(CN4CCCC4)c(O)c(CN4CCCC4)c3)c2n1 [Pyronaridine, 4-[(7-Chloro-2-methoxybenzo[b][1,5]naphthyridin-10-yl)amino]-2,6-bis(1-pyrrolidinylmethyl)phenol phosphate (1:4)]
inhibition at 1 µM (GSK3A (GSK3 alpha)): 4%
inhibition at 1 µM (PTK2 (FAK)): 2%
inhibition at 1 µM (BLK): 3%
inhibition at 1 µM (SRC N1): 5%
inhibition at 1 µM (MET (cMet) Y1235D): 4%
inhibition at 1 µM (KIT V559D): -1%
inhibition at 1 µM (CSNK2A1 (CK2 alpha 1)): 7%
inhibition at 1 µM (AKT1 (PKB alpha)): 4%
inhibition at 1 µM (PRKCA (PKC alpha)): 13%
inhibition at 1 µM (TEK (Tie2)): 5%
inhibition at 1 µM (IGF1R): 6%
inhibition at 1 µM (DAPK3 (ZIPK)): 2%
inhibition at 1 µM (DYRK1A): 3%
inhibition at 1 µM (ABL1 F317I): 0%
inhibition at 1 µM (PIM1): 8%
inhibition at 1 µM (MAPK1 (ERK2)): -1%
inhibition at 1 µM (MST1R (RON)): 2%
inhibition at 1 µM (PEAK1): 1%
inhibition at 1 µM (CSNK2A2 (CK2 alpha 2)): 5%
inhibition at 1 µM (JAK1): 0%
inhibition at 1 µM (NEK1): -1%
inhibition at 1 µM (PIM3): 12%
inhibition at 1 µM (CLK3): -3%
inhibition at 1 µM (TEK (TIE2) Y897S): 2%
inhibition at 1 µM (CAMK1G (CAMKI gamma)): 0%
inhibition at 1 µM (PRKCB2 (PKC beta II)): 15%
inhibition at 1 µM (DYRK4): 0%
inhibition at 1 µM (MAPK3 (ERK1)): 6%
